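Five concentrations, 48 hours, 96-well plates. The concentration for 50% growth inhibition is given as GI50. TGI denotes the concentration required for complete inhibition of growth.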

Some test systems named below: MCF7 breast; TK-10 renal; T-47D breast; KM12 colon; UACC-62 melanoma; SW-620 colon; UACC-257 melanoma; MALME-3M melanoma.
Holding throughout (experiment): NCI anticancer screen, dose series, 48 h

For the compound `CCCCCCCCCCCCCCCCCC[n+]1ccc2c(C)c3c(c(C)c2c1)c1cc(O)ccc1n3CC`, the GI50 in the assay with MCF7 breast is 2.75 µM; in the assay on TK-10 renal it was 1.49 µM; in the assay with T-47D breast, 2.57 µM; with KM12 colon, 2.01 µM; with UACC-62 melanoma, 1.29 µM; in the assay on SW-620 colon it was 1.79 µM. Also, the TGI with MCF7 breast was 17.1 µM; in the assay with TK-10 renal, 4.13 µM; with T-47D breast, 27.3 µM; in the assay with KM12 colon, more than 100 µM; with UACC-62 melanoma, 3.38 µM; in the assay with SW-620 colon, 7.1 µM.
Regarding `CN(C)CCCn1c(=O)c2ccccc2c2ccccc21`, the GI50 in the assay with MCF7 breast was 7.24 µM; in the assay with TK-10 renal it was 20.3 µM; with T-47D breast it was 25.2 µM; in the assay with KM12 colon, 15.5 µM; in the assay with UACC-62 melanoma, 17 µM; in the assay on SW-620 colon, 6.27 µM. In addition, the GI50 in the assay with UACC-257 melanoma was 12.6 µM. The TGI in the assay with MCF7 breast is more than 100 µM; in the assay on TK-10 renal it was more than 100 µM; in the assay with T-47D breast, more than 100 µM; in the assay with KM12 colon it was 66.7 µM; with UACC-62 melanoma, 33.6 µM; in the assay with SW-620 colon, 53.3 µM. In the assay with UACC-257 melanoma, this compound displayed a TGI of 26.6 µM.
In the case of `C1CCC([PH+](C2CCCCC2)C2CCCCC2[PH+](C2CCCCC2)C2CCCCC2)CC1.[Au].[CH-]1CCCCC1CC1CCCC[N-]1` (stereo not drawn), the GI50 in the assay with TK-10 renal was 0.516 µM; in the assay on MALME-3M melanoma, 0.192 µM; with UACC-62 melanoma, 0.249 µM; in the assay on SW-620 colon it was 0.371 µM; in the assay with UACC-257 melanoma it was 0.323 µM. Besides, the TGI was determined as 2.05 µM in the assay on TK-10 renal, 0.739 µM with MALME-3M melanoma, 1.41 µM in the assay on SW-620 colon and 1.94 µM with UACC-257 melanoma.
For the compound `COc1ccc(-c2[nH]c3ccccc3c2-c2ccc(OC)cc2)cc1`, the GI50 was 2.87 µM in the assay with MCF7 breast; 12.6 µM in the assay on TK-10 renal; 3.28 µM in the assay with T-47D breast; 2.48 µM in the assay on KM12 colon; 6.25 µM with UACC-62 melanoma; 4.53 µM in the assay with SW-620 colon. The GI50 in the assay with UACC-257 melanoma is 7.22 µM. Besides, the TGI is 12.4 µM with MCF7 breast; 41 µM with TK-10 renal; 20.6 µM in the assay with T-47D breast; 6.64 µM in the assay on KM12 colon; 22 µM in the assay on UACC-62 melanoma; 36.8 µM with SW-620 colon. In addition, the TGI in the assay on UACC-257 melanoma was 23.2 µM.
Consider `COc1cc2c3c(n(C)c(=O)c2cc1OC)-c1cc2c(cc1/C3=C\CCCCN1C(=O)c3ccccc3C1=O)OCO2`, for which the GI50 was 10.8 µM in the assay with MCF7 breast; 1.11 µM in the assay with TK-10 renal; 59.3 µM in the assay on KM12 colon; 6.01 µM in the assay with UACC-62 melanoma; 7 µM in the assay on SW-620 colon; 23.4 µM with UACC-257 melanoma. Also, the TGI in the assay with MCF7 breast was 53.9 µM; in the assay with TK-10 renal, 29.1 µM; in the assay with KM12 colon, more than 100 µM; with UACC-62 melanoma it was 37.6 µM; in the assay with SW-620 colon, more than 100 µM; in the assay on UACC-257 melanoma, more than 100 µM.
Consider `O=C1c2cccnc2C(=O)c2c1c(C(=O)NCCCN1CCCCC1)c1ccccn21`, for which the GI50 with T-47D breast is 1.59 µM; with KM12 colon, 0.99 µM; in the assay with MALME-3M melanoma it was 0.226 µM; in the assay with UACC-62 melanoma, 0.624 µM; in the assay on SW-620 colon, 0.471 µM; with UACC-257 melanoma, 0.813 µM. For the same compound, the TGI in the assay on T-47D breast was found to be 4.34 µM; in the assay with KM12 colon, 10.1 µM; in the assay with MALME-3M melanoma, 0.684 µM; with UACC-62 melanoma it was 2.51 µM; in the assay with SW-620 colon, 2.14 µM; in the assay on UACC-257 melanoma, 2.18 µM.
With `COc1cccc(OC(=O)c2ccc(C(F)(F)F)nc2Nc2cc(Cl)ccc2C)c1`, the GI50 with MCF7 breast is 4.2 µM; with TK-10 renal, 30.7 µM; in the assay on T-47D breast, 2.82 µM; in the assay on KM12 colon it was 20.6 µM; in the assay on UACC-62 melanoma, 3.3 µM; in the assay with SW-620 colon, 5.31 µM. In the assay with UACC-257 melanoma, the GI50 is 13.3 µM. Also, the TGI is more than 100 µM with MCF7 breast; 92 µM in the assay with TK-10 renal; more than 100 µM in the assay on T-47D breast; 50 µM in the assay with KM12 colon; 20 µM in the assay on UACC-62 melanoma; 50.7 µM in the assay with SW-620 colon. The compound also showed a TGI in the assay with UACC-257 melanoma of 54.8 µM.
Turning to `CO[C@H]1CC(O[C@@H]2/C(C)=C/C[C@@H]3C[C@@H](C[C@]4(C=C[C@H](C)[C@@H](C5CCCCC5)O4)O3)OC(=O)[C@@H]3C=C(C)[C@@H](O)[C@H]4OC/C(=C\C=C\[C@@H]2C)[C@]43O)O[C@@H](C)C1O[C@H]1C[C@H](OC)[C@@H](O)[C@H](C)O1` (stereo partly drawn), the GI50 in the assay on MCF7 breast is 1.82 µM; with TK-10 renal it was 1.84 µM; in the assay with T-47D breast, 1.65 µM; in the assay with KM12 colon, 1.77 µM. Further, the TGI with MCF7 breast amounted to 5.84 µM; in the assay on TK-10 renal, 3.51 µM; in the assay on T-47D breast, 3.43 µM; in the assay with KM12 colon it was 3.54 µM.
In the case of `C/C(=C\c1ccc2ccccc2c1)[N+](=O)[O-]`, the GI50 is 2.11 µM in the assay on KM12 colon; 2.07 µM in the assay on MALME-3M melanoma; 1.76 µM in the assay with UACC-62 melanoma; 1.78 µM in the assay with SW-620 colon; 1.56 µM in the assay with UACC-257 melanoma. Besides, the TGI with KM12 colon was found to be 4.19 µM; in the assay with MALME-3M melanoma, 3.97 µM; in the assay with UACC-62 melanoma it was 3.26 µM; with SW-620 colon it was 3.54 µM; with UACC-257 melanoma, 2.9 µM.
Take `O=C1c2c(c3c4ccccc4[nH]c3c3ccc4ccccc4c23)C(=O)N1CCN1CCNCC1`: the GI50 was 1 µM in the assay on MCF7 breast; 1.77 µM in the assay with TK-10 renal; 1.5 µM with KM12 colon; 1.57 µM with MALME-3M melanoma; 1.86 µM in the assay on UACC-62 melanoma; 1.49 µM in the assay with SW-620 colon. The GI50 in the assay on UACC-257 melanoma is 1.87 µM. Further, the TGI with MCF7 breast turned out to be 2.42 µM; in the assay with TK-10 renal, 3.24 µM; in the assay with KM12 colon, 3.07 µM; with MALME-3M melanoma it was 3.18 µM; with UACC-62 melanoma it was 3.77 µM; with SW-620 colon it was 3.16 µM. In addition, the TGI with UACC-257 melanoma was 3.82 µM.
As to `CCOC(=O)C1=C(C)N(c2ccc(Cl)cc2)[C@]2(C#N)C(O)=C(Cl)C(Cl)=C(O)[C@]12C#N`, the GI50 is more than 100 µM with MCF7 breast; 65.4 µM in the assay with TK-10 renal; 16.9 µM with T-47D breast; 47.9 µM with KM12 colon; more than 100 µM with MALME-3M melanoma; 66.3 µM with SW-620 colon. Also, in the assay with UACC-257 melanoma, the GI50 was more than 100 µM. Moreover, the TGI with MCF7 breast was more than 100 µM; in the assay with TK-10 renal it was more than 100 µM; with T-47D breast it was 81 µM; with KM12 colon, more than 100 µM; in the assay on MALME-3M melanoma, more than 100 µM; in the assay on SW-620 colon, more than 100 µM. For the same compound, in the assay on UACC-257 melanoma, the TGI is more than 100 µM.

Values taken from PubChem BioAssay (NCI).
